From patent US7166452B2, “Aminoketone asymmetric reductase and nucleic acid thereof” (priority 2001, dated 2007)

What was measured:
[1] = system: aminoketone asymmetric reductase; test: Substrate specificity and enzyme activity of purified enzyme (NADPH absorbance at 340 nm); format: biochemical, Rhodococcus erythropolis; details: for enzyme acts on the compound (substrate specificity): purified enzyme
Procedure: (§1) While 10 μl of 1 M Tris-hydrochloric acid buffer solution (pH 8.0), 25 μl of 16 mM NADP^+, and 215 μl of the purified enzyme solution were held at 43° C., 1 μl of 1-amino-2-hydroxypropane was added thereto, whereby aminoacetone was produced. The increase or decrease in NADPH accompanying the reaction was measured by the change in absorbance at 340 nm. In the measurement of enzyme activity, the enzyme activity by which 1 μmol of 1-amino-2-hydroxypropane was oxidized per 1 min under the following condition was defined as 1 unit (U). As a result, the whole activity was 126 mU, the specific activity was 432 mU/mg, and the activity yield was 0.22%.
It was similarly confirmed that the enzyme acted on 1-2-methylaminopropiophenone, 1-2-dimethylaminopropiophenone, and 1-amino-2-butanone.

[2] = system: Rhodococcus erythropolis MAK-34; format: cell-based
[3] = system: Mycobacterium smegmatis IAM-12065; format: cell-based
[4] = system: Mycobacterium chlorophenolicum IFO-15527; format: cell-based
[5] = system: Nocardioides simplex IFO-12069; format: cell-based
[6] = system: Klebsiella pneumoniae IFO-3319; format: cell-based
[7] = system: Absidia lichtheimi IFO-4409; format: cell-based
[8] = system: Aspergillus awamori IFO-4033; format: cell-based
[9] = system: Aspergillus candidus IFO-5468; format: cell-based
[10] = system: Penicillium cyaneum IFO-5337; test: Influence of inducer addition on d-pseudoephedrine production (Example 6); format: cell-based; details: cells cultured with inducer 5 g/L, medium 4
[11] = system: Hypocrea gelatinosa IFO-9165; test: as above; format: cell-based; details: cells cultured with inducer 5 g/L, medium 4
[12] = system: Helicostylum nigricans IFO-8091; format: cell-based
[13] = system: Tritirachium oryzae IFO-7544; format: cell-based
[14] = system: Armillariella mellea IFO-31616; test: Influence of inducer addition on d-pseudoephedrine production (Example 6); format: cell-based; details: cells cultured with inducer 5 g/L, medium 4
[15] = system: Rhodococcus erythropolis MAK-34 strain; format: cell-based
[16] = system: aminoketone asymmetric reductase; format: biochemical, Rhodococcus erythropolis; details: inhibitor at a concentration of 1 mM; purified enzyme
Procedure: as §1, with “(U).” for “(U). As a result, the whole activity was 126 mU, the specific activity was 432 mU/mg, and the activity yield was 0.22%.”

[17] = system: aminoketone asymmetric reductase; test: Optimum pH and optimum temperature of purified enzyme; format: biochemical, Rhodococcus erythropolis; details: 1-amino-2-propanol, NADP+
Procedure: Ten microliters of the purified enzyme solution, 420 μL of water, 20 μL of 1 M Tris-hydrochloric acid buffer solution, and 50 μL of 16 mM aqueous NADP^+ solution was mixed, and incubated at 45° C., and 2 μL of 1-amino-2-propanol were added thereto, so as to react therewith. Using a spectrophotometer, the activity was calculated from the change in absorbance at 340 nm with time (FIG. 2). As a result, the optimum pH was about 8.1.
Ten microliters of the purified enzyme solution, 420 μL of water, 20 μL of 0.1 M PIPES buffer solution (pH 7.5), and 50 μL of 16 mM aqueous NADP^+ solution was mixed, and incubated at various temperatures, and 2 μL of 1-amion-2-propanol were added thereto, so as to react therewith. Using a spectrophotometer, the activity was calculated from the change in absorbance at 340 nm with time (FIG. 3). As a result, the optimum temperature was 55° C.

Molecule: CC(C(=O)c1ccccc1)N(C)C (centres unmarked) [1-2-dimethylaminopropiophenone]
- enzyme acts on the compound (substrate specificity) [1]: acted on

Molecule: CNC(C)C(=O)c1ccccc1 (centres unmarked) [1-2-methylaminopropiophenone]
- enzyme acts on the compound (substrate specificity) [1]: acted on

Molecule: CCC(=O)CN [1-amino-2-butanone]
- enzyme acts on the compound (substrate specificity) [1]: acted on

Molecule: CCC(O)CN (centres unmarked) [1-amino-2-hydroxybutane]
- AMOUNT OF PRODUCTION (ADDED) [2]: 0.65 mg
- AMOUNT OF PRODUCTION (ADDED) [3]: 0.17 mg

Molecule: NC1CCCCC1O (centres unmarked) [1-amino-2-hydroxycyclohexane]
- AMOUNT OF PRODUCTION (ADDED) [2]: 0.23 mg
- AMOUNT OF PRODUCTION (ADDED) [3]: 0.13 mg

Molecule: CC(O)CN (centres unmarked) [1-amino-2-hydroxypropane]
- enzyme acts on the compound (substrate specificity) [1]: acts on
- AMOUNT OF PRODUCTION (ADDED) [2]: 1.260 mg
- AMOUNT OF PRODUCTION (ADDED) [4]: 0.770 mg
- AMOUNT OF PRODUCTION (ADDED) [3]: 0.210 mg
- AMOUNT OF PRODUCTION (ADDED) [5]: 0.190 mg
- AMOUNT OF PRODUCTION (ADDED) [6]: 0.066 mg
- AMOUNT OF PRODUCTION (ADDED) [7]: 0.220 mg
- AMOUNT OF PRODUCTION (ADDED) [8]: 1.170 mg
- AMOUNT OF PRODUCTION (ADDED) [9]: 0.018 mg
- AMOUNT OF PRODUCTION (ADDED) [10]: 1.260 mg
- AMOUNT OF PRODUCTION (ADDED) [11]: 0.640 mg
- AMOUNT OF PRODUCTION (ADDED) [12]: 0.520 mg
- AMOUNT OF PRODUCTION (ADDED) [13]: 0.078 mg
- AMOUNT OF PRODUCTION (ADDED) [14]: 0.460 mg

Molecule: CC(=O)CN [1-amino-2-oxopropane]
- enzyme acts on the compound (substrate specificity) [1]: reduction activity
- AMOUNT OF PRODUCTION [15]: 1.97 mg

Molecule: O=C(O)CN(CCN(CC(=O)O)CC(=O)O)CC(=O)O [EDTA]
- enzyme activity inhibited by inhibitor [16]: inhibited

Molecule: c1cnc2c(c1)ccc1cccnc12 [o-phenanthroline]
- enzyme activity inhibited by inhibitor [16]: inhibited

Molecule: c1ccc(-c2ccccn2)nc1 [α,α′-dipyridyl]
- enzyme activity inhibited by inhibitor [16]: inhibited

B1: aminoketone asymmetric reductase: enzyme purified from Rhodococcus erythropolis MAK-34; SEQ ID NO:1; tetramer of about 28,500 subunits; coenzyme NADP (protein, listed as Rhodococcus erythropolis)
chain: MFNSIEGRSVVVTGGSKGIGLGMVRVFARAGANVLMTARDALTLERAAEGLNGLPGAVSTLQVDVTNPDSLAGMAEVAAERHGGIDVLCANAGIFPSKRLGEMTSEDMDSVFGVNVKGTIHAVQACMPWLETSGRGRVVVTSSITGPVTGYPGWSHYGASKAAQMGFIRTAAIELAPKRITINAVLPGNVITEGLDGLGQEYLDQMASSVPAGSLGSVEDIANAALFFALDEAAYITGQSLIVDGGQVLPESAMALGEL
modifications: tetramer
notes: enzyme purified from Rhodococcus erythropolis MAK-34; tetramer of about 28,500 subunits; coenzyme NADP
- specific activity ([1]; oxidation of 1-amino-2-hydroxypropane, NADP+, pH 8.0, 43° C., 1 U = 1 μmol per 1 min): 432 mU/mg
- optimum temperature ([17]; PIPES buffer pH 7.5): 55 °C
- optimum pH ([17]; Tris-hydrochloric acid buffer, 45° C.): about 8.1
